Where two headings read alike, the source gives them in different places.

The test has as its system Zygosaccharomyces bailii ATCC 60483. The class given is cell-based. The conditions noted are these: 30 seconds. On the procedure:
The rate at which a composition of the invention killed a test organism was measured by inoculating use solutions with a test organism and then quantifying survivors after various exposure times. Ninety-nine mL of each use solution was transferred to a 250 mL Erlenmeyer flask and allowed to equilibrate to test temperature. The liquid in the flask was swirled vigorously in a rapid circular motion and 1 mL of a suspension of the test organism was added.
After the exposure time, 1 mL quantities of the use solution/test organism mixture were transferred to 9 mL of the use-solution neutralizer. One mL quantities of the neutralizer were pour-plated using the plating medium. Serial 10-fold or 100-fold dilutions of the neutralizer solution were also plated. Plates were incubated and then surviving microorganisms were counted. The Log10 reduction of the test organism due to the use solution was determined by comparing reduction to an untreated control set (referred to as the Inoculum Numbers).
The test method was carried out as described in Example 5.
To determine the antifungal activity of hydrogen peroxide and peroxyacetic independently and in combination with a quaternary ammonium compound, the following experimental perimeters were used. The test organism studied was Zygosaccharomyces bailii ATCC 60483.
The test temperature used was 25° C., and the exposure time was 30 seconds. The use-solution neutralizer used was 1% sodium thiosulfate/1% peptone/0.025% catalase (for POAA, H2O2), Chambers neutralizer (for quaternary ammonium compound), and 1:1 mixture of the above (for POAA/H2O2/quaternary ammonium compound).
The microorganisms were plated on Sabourad dextrose agar and incubated for 4 days at 26° C.

Regarding `CCCCCCCCCC[N+](C)(C)CCCCCCCCCC.[Cl-]` [Didecyl Dimethyl Ammonium Chloride], the “Log Reduction” value is, setting by setting: (20 ppm, pH 3, 25° C.) 0.00; (20 ppm, pH 5, 25° C.) 0.02; (20 ppm, pH 7, 25° C.) 0.05; (20 ppm, pH 9, 25° C.) 0.18; (20 ppm, pH 11, 25° C.) 1.69. Also, the Survivors (20 ppm, pH 3, 25° C.) is 9.4 × 10^6 cfu/ml; the Survivors (20 ppm, pH 5, 25° C.) was 7.1 × 10^6 cfu/ml; the Survivors (20 ppm, pH 7, 25° C.) is 6.6 × 10^6 cfu/ml; the Survivors (20 ppm, pH 9, 25° C.) was 4.9 × 10^6 cfu/ml; the Survivors (20 ppm, pH 11, 25° C.) was 1.5 × 10^5 cfu/ml.
For `OO` [Hydrogen Peroxide], the “Log Reduction” value reads like this: (532 ppm, pH 3, 25° C.) 0.00; (532 ppm, pH 5, 25° C.) 0.00; (532 ppm, pH 7, 25° C.) 0.00; (532 ppm, pH 9, 25° C.) 0.04; (532 ppm, pH 11, 25° C.) 0.06. Also, the Survivors reads like this: (532 ppm, pH 3, 25° C.) 7.5 × 10^6 cfu/ml; (532 ppm, pH 5, 25° C.) 9.9 × 10^6 cfu/ml; (532 ppm, pH 7, 25° C.) 7.9 × 10^6 cfu/ml; (532 ppm, pH 9, 25° C.) 6.8 × 10^6 cfu/ml; (532 ppm, pH 11, 25° C.) 6.5 × 10^6 cfu/ml.
